# Tests used:
# [1] = target: Serine/threonine-protein kinase PknB (Mycobacterium tuberculosis) (UniProt P9WI81); assay: Binding affinity to wild-type Mycobacterium tuberculosis partial length PKNB (M1 to G279 residues) expressed in mammalian expression system assessed as residual binding level at 10 uM by Kinomescan method relative to control
# [2] = target: Serine/threonine-protein kinase 36 (Homo sapiens) (UniProt Q9NRP7); assay: Binding affinity to wild-type human partial length STK36 (M1 to T271 residues) expressed in bacterial expression system assessed as residual binding level at 10 uM by Kinomescan method relative to control
# [3] = target: Serine/threonine-protein kinase 4 (Homo sapiens) (UniProt Q13043); assay: Binding affinity to wild-type human full length MST1 (M1 to F487 residues) expressed in bacterial expression system assessed as residual binding level at 10 uM by Kinomescan method relative to control
# [4] = target: Serine/threonine-protein kinase PLK2 (Homo sapiens) (UniProt Q9NYY3); assay: Binding affinity to wild-type human partial length PLK2 (H58 to F354 residues) expressed in mammalian expression system assessed as residual binding level at 10 uM by Kinomescan method relative to control
# [5] = target: Serine/threonine-protein kinase 17B (Homo sapiens) (UniProt O94768); assay: Binding affinity to wild-type human full length DRAK2 (M1 to C372 residues) expressed in bacterial expression system assessed as residual binding level at 10 uM by Kinomescan method relative to control
# [6] = target: Wee1-like protein kinase 2 (Homo sapiens) (UniProt P0C1S8); assay: Binding affinity to wild-type human partial length WEE2 (M204 to K492 residues) expressed in bacterial expression system assessed as residual binding level at 10 uM by Kinomescan method relative to control
# PC-3 = assay: Cytotoxicity against human PC3 cells assessed as growth inhibition incubated for 48 hrs by Hoechst 33342 staining based assay; format: cell-based; details: PC-3, 48 h
# [7] = target: Casein kinase I isoform gamma-3 (Homo sapiens) (UniProt Q9Y6M4); assay: Binding affinity to wild-type human full length CSNK1G3 (M1 to K447 residues) expressed in bacterial expression system assessed as residual binding level at 10 uM by Kinomescan method relative to control
# [8] = target: Macrophage colony-stimulating factor 1 receptor (Homo sapiens) (UniProt P07333); assay: Binding affinity to wild-type human partial length CSF1R (I564 to S939 residues) expressed in bacterial expression system assessed as residual binding level at 10 uM by Kinomescan method relative to control
# [9] = target: Serine/threonine-protein kinase PAK 1 (Homo sapiens) (UniProt Q13153); assay: Binding affinity to wild-type human partial length PAK1 (S149 to H545 residues) expressed in bacterial expression system assessed as residual binding level at 10 uM by Kinomescan method relative to control
# [10] = target: Serine/threonine-protein kinase PAK 3 (Homo sapiens) (UniProt O75914); assay: Binding affinity to wild-type human full length PAK3 (M1 to R544 residues) expressed in bacterial expression system assessed as residual binding level at 10 uM by Kinomescan method relative to control
# [11] = target: Serine/threonine-protein kinase mTOR (Homo sapiens) (UniProt P42345); assay: Binding affinity to wild-type human partial length MTOR (L1382 to W2549 residues) expressed in mammalian expression system assessed as residual binding level at 10 uM by Kinomescan method relative to control
# [12] = target: Casein kinase II subunit alpha' (Homo sapiens) (UniProt P19784); assay: Binding affinity to wild-type human full length CSNK2A2 (M1 to R350 residues) expressed in mammalian expression system assessed as residual binding level at 10 uM by Kinomescan method relative to control
# [13] = target: MAP kinase-activated protein kinase 2 (Homo sapiens) (UniProt P49137); assay: Binding affinity to wild-type human partial length MAPKAPK2 (V48 to D345 residues) expressed in bacterial expression system assessed as residual binding level at 10 uM by Kinomescan method relative to control
# [14] = target: Serine/threonine-protein kinase SIK2 (Homo sapiens) (UniProt Q9H0K1); assay: Binding affinity to wild-type human full length SIK2 (M1 to N926 residues) expressed in bacterial expression system assessed as residual binding level at 10 uM by Kinomescan method relative to control
# [15] = target: Cyclin-dependent kinase-like 3 (Homo sapiens) (UniProt Q8IVW4); assay: Binding affinity to wild-type human partial length CDKL3 (M1 to D327 residues) expressed in bacterial expression system assessed as residual binding level at 10 uM by Kinomescan method relative to control
# [16] = target: Serine/threonine-protein kinase RIO3 (Homo sapiens) (UniProt O14730); assay: Binding affinity to wild-type human full length RIOK3 (M1 to E519 residues) expressed in bacterial expression system assessed as residual binding level at 10 uM by Kinomescan method relative to control
# [17] = target: Receptor tyrosine-protein kinase erbB-2 (Homo sapiens) (UniProt P04626); assay: Binding affinity to wild-type human partial length ERBB2 (K646 to V1225 residues) expressed in mammalian expression system assessed as residual binding level at 10 uM by Kinomescan method relative to control
# [18] = target: Atypical kinase COQ8A, mitochondrial (Homo sapiens) (UniProt Q8NI60); assay: Binding affinity to wild-type human full length ADCK3 (M280 to Q647 residues) expressed in bacterial expression system assessed as residual binding level at 10 uM by Kinomescan method relative to control
# [19] = target: Cyclin-G-associated kinase (Homo sapiens) (UniProt O14976); assay: Binding affinity to wild-type human partial length GAK (G13 to Y338 residues) expressed in bacterial expression system assessed as residual binding level at 10 uM by Kinomescan method relative to control
# [20] = target: Rhodopsin kinase GRK7 (Homo sapiens) (UniProt Q8WTQ7); assay: Binding affinity to wild-type human full length GRK7 (M1 to L553 residues) expressed in mammalian expression system assessed as residual binding level at 10 uM by Kinomescan method relative to control
# [21] = target: Leukocyte tyrosine kinase receptor (Homo sapiens) (UniProt P29376); assay: Binding affinity to wild-type human partial length LTK (P422 to S744 residues) expressed in bacterial expression system assessed as residual binding level at 10 uM by Kinomescan method relative to control
# [22] = system: Tyrosine-protein kinase ABL1 (Homo sapiens), P00519 [E255K]; assay: Binding affinity to human phosphorylated ABL1 E255K mutant (S229 to K512 residues) expressed in mammalian expression system assessed as residual binding level at 10 uM by Kinomescan method relative to control
# [23] = target: Tyrosine-protein kinase receptor UFO (Homo sapiens) (UniProt P30530); assay: Binding affinity to wild-type human partial length AXL (R497 to Y821 residues) expressed in bacterial expression system assessed as residual binding level at 10 uM by Kinomescan method relative to control
# [24] = target: Receptor-type tyrosine-protein kinase FLT3 (Homo sapiens) (UniProt P36888); assay: Binding affinity to wild-type human partial length FLT3 (V592 to Y969 residues) expressed in bacterial expression system assessed as residual binding level at 10 uM by Kinomescan method relative to control
structure (smiles),measurement,setting,value
O=C(Nc1cc(-c2cn(CCNc3c4c(nc5ccccc35)CCCC4)nn2)ccn1)Nc1cccc2c1C1CCCCN1C2=O (racemic),Activity,[1],3.3%
same,Activity,[2],9.1%
same,Activity,[3],66%
same,Activity,[4],80%
same,Activity,[5],1.7%
same,Activity,[6],100%
same,IC50,PC-3,5 µM
same,Activity,[7],80%
same,Activity,[8],0.2%
same,Activity,[9],88%
same,Activity,[10],40%
same,Activity,[11],100%
same,Activity,[12],5%
same,Activity,[13],100%
same,Activity,[14],36%
same,Activity,[15],0%
same,Activity,[16],11%
same,Activity,[17],100%
same,Activity,[18],40%
same,Activity,[19],19%
same,Activity,[20],61%
same,Activity,[21],100%
same,Activity,[22],1.8%
same,Activity,[23],5.5%
same,Activity,[24],0.55%

# Reference: ChEMBL document CHEMBL4390652, “Design, biological evaluation and X-ray crystallography of nanomolar multifunctional ligands targeting simultaneously acetylcholinesterase and glycogen synthase kinase-3” (Eur J Med Chem, 2019)
